Laboratory results reported in US9139551B2, “Preparation of a new class of water-soluble ammonium 2,3-dihydroxy-5-((2R,3R)-3,5,7-trihydroxy-4-oxochroman-2-yl) phenolates and their biological activity of alcohol elimination” (priority 2014, dated 2015).

System: Balb/C mice
Test: Dose-effect relationship of TDHM (sleep time and climbing time)
Format: in vivo
Experimental: Assay the Dose-Effect Relationship of TDHM • Groups design and treatment before experiment are the same as that in Deintoxication test. 30 minutes before intragastric administration of alcohol, mice were gavaged with 0.5 mg/kg BW, 2.0 mg/kg BW, 8.0 mg/kg BW, 32 mg/kg BW, 64 mg/kg BW, 128 mg/kg BW TDHM respectively. Sleep time and climbing time were recorded.

[1] = 8.0 mg/kg BW intragastric, drunk mice
[2] = TDHM 0.5 mg/kg gavage 30 min before alcohol
[3] = TDHM 2 mg/kg gavage 30 min before alcohol
[4] = TDHM 8 mg/kg gavage 30 min before alcohol
[5] = TDHM 32 mg/kg gavage 30 min before alcohol
[6] = TDHM 64 mg/kg gavage 30 min before alcohol
[7] = TDHM 128 mg/kg gavage 30 min before alcohol

triethylammonium 2,3-dihydroxy-5-((2R,3R)-3,5,7-trihydroxy-4-oxochroman-2-yl)phenolate [TDHM]
climbing time vs other concentrations of TDHM [1]: longer | sleep time vs other concentrations of TDHM [1]: significantly shorter | Climbing time [2]: 184.5 min | Holding time [2]: 147.2 min | Climbing time [3]: 272.67 min | Holding time [3]: 151.00 min | Climbing time [4]: 368.33 min | Holding time [4]: 104.5 min | Climbing time [5]: 243.17 min | Holding time [5]: 106.67 min | Climbing time [6]: 271.83 min | Holding time [6]: 84.33 min | Climbing time [7]: 298.33 min | Holding time [7]: 93.5 min
